From ChEMBL document CHEMBL1221314, “Potential anti-inflammatory phenolic glycosides from the medicinal plant Moringa oleifera fruits” (Bioorg Med Chem, 2010)

Legend:
[1] = test system: RAW264.7; assay: Antiinflammatory activity in mouse RAW264.7 cells assessed as inhibition of LPS-induced NO production incubated 30 mins prior to LPS challenge; assay type: functional, cell-based
[2] = test system: RAW264.7; assay: Antiinflammatory activity in mouse RAW264.7 cells assessed as inhibition of LPS-induced NO production at 5 uM incubated 30 mins prior to LPS challenge; assay type: functional
[3] = test system: RAW264.7; assay: Cytotoxicity against mouse RAW264.7 cells after 24 hrs by SRB assay; assay type: cell-based; conditions: raw264.7, 24 h
[4] = test system: RAW264.7; assay: Antiinflammatory activity in mouse RAW264.7 cells assessed as inhibition of LPS-induced iNOS expression incubated 30 mins prior to LPS challenge by Western blotting; assay type: functional, cell-based

Row | SMILES | IC50 [1] [µM] | inhibition at 5 µM [2] [%] | Activity [3] | Activity [4]
1 | CSC(=O)NCc1ccc(O[C@@H]2O[C@@H](C)[C@H](O)[C@@H](O)[C@H]2O)cc1 | > 45 | 24.3 | – | –
2 | CC(=O)O[C@@H]1[C@@H](O)[C@H](C)O[C@@H](Oc2ccc(CN=C=S)cc2)[C@@H]1O | 2.66 | – | Non-toxic | Dose-dependent effect
3 | CNC(=N)NCCC[C@H](N)C(=O)O | 25.5 | – | – | –
4 | COC(=S)NCc1ccc(O[C@@H]2O[C@@H](C)[C@H](O)[C@@H](O)[C@H]2O)cc1 [NIAZININ A] | > 45 | < 1 | – | –
5 | C[C@@H]1O[C@@H](Oc2ccc(CN=C=S)cc2)[C@H](O)[C@H](O)[C@H]1O | 14.4 | – | – | Dose-dependent effect

Continued, in another order:

Row | IC50 [1] [µM] | SMILES | inhibition at 5 µM [2] [%] | Activity [3] | Activity [4]
6 | > 45 | C[C@@H]1O[C@@H](Oc2ccc(CC#N)cc2)[C@H](O)[C@H](O)[C@H]1O [NIAZIRIN] | < 1 | – | –
7 | 2.71 | CC(=O)O[C@@H]1[C@@H](O)[C@@H](O)[C@H](Oc2ccc(CN=C=S)cc2)O[C@H]1C | – | Non-toxic | Dose-dependent effect
8 | 1.67 | CC(=O)O[C@H]1[C@H](Oc2ccc(CN=C=S)cc2)O[C@@H](C)[C@H](O)[C@H]1O | – | Non-toxic | Dose-dependent effect
9 | > 45 | COC(=S)NCc1ccc(O[C@@H]2O[C@@H](C)[C@H](OC(C)=O)[C@@H](O)[C@H]2O)cc1 [NIAZICIN A] | 17.3 | – | –
